Source: PMC4508061, “Selectivity Profiling and Biological Activity of Novel β-Carbolines as Potent and Selective DYRK1 Kinase Inhibitors” (PLoS ONE, 2015)
pIC50: −log10 of the molar value. Where two headings read alike, the source gives them in different places.

What was measured:
DYRK2 [1] = target: T1, DYRK2 (Homo sapiens, UniProt Q92630); conditions: 10 μM; cited from earlier work
T1 construct: purchased ProQinase (Freiburg, Germany)
T1 sequence (Q92630 1-601): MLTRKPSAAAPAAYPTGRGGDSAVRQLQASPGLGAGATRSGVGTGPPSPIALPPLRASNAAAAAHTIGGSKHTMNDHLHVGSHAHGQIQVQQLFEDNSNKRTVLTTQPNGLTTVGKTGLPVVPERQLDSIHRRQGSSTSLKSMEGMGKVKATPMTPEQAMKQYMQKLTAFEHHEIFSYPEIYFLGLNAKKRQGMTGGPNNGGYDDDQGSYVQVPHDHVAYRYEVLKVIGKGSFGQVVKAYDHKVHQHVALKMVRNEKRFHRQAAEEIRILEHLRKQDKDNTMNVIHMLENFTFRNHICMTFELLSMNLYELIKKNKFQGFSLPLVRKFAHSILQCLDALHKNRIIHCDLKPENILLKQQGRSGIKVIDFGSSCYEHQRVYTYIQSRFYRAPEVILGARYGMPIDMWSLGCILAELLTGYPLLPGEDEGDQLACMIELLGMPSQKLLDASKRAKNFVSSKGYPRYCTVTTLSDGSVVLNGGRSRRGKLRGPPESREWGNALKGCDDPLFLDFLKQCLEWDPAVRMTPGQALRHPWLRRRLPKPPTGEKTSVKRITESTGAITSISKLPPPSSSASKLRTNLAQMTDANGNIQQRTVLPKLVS

DYRK1A [2] = conditions: given because %-activity values are not given in the reference; read-out: IC50; cited from earlier work
DYRK3 = target: T2, DYRK3 (Homo sapiens, UniProt O43781); conditions: 10 μM; cited from earlier work
T2 construct: purchased ProQinase (Freiburg, Germany)
T2 sequence (O43781 1-588): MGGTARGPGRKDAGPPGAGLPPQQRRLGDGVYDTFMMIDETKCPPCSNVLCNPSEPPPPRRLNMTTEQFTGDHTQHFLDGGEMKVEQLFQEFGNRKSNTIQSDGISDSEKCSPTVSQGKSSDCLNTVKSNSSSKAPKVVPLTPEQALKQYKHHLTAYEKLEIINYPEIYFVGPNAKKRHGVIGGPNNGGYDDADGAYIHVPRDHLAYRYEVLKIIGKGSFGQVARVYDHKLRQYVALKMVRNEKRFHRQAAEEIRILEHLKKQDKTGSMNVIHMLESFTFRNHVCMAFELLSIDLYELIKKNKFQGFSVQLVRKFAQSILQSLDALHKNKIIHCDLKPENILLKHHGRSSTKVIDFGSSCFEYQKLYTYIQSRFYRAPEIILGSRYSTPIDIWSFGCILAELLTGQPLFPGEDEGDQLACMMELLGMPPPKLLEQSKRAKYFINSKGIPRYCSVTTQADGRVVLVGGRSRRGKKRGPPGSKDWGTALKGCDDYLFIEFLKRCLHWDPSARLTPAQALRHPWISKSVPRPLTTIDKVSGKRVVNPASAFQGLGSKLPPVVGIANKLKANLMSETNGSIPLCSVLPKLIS

PIM1 = PIM1 (Homo sapiens, UniProt P11309); parameters: purchased ProQinase (Freiburg, Germany); conditions: 10 μM; cited from earlier work
DYRK4 = target: T3, DYRK4 (Homo sapiens, UniProt Q9NR20); conditions: 10 μM; cited from earlier work
T3 construct: purchased ProQinase (Freiburg, Germany)

HIPK1 = HIPK1 (Homo sapiens, UniProt Q86Z02); parameters: purchased ProQinase (Freiburg, Germany); conditions: 10 μM; cited from earlier work
CLK1 [3] = target: T4, CLK1 (Homo sapiens, UniProt P49759); parameters: purchased ProQinase (Freiburg, Germany); conditions: 10 μM; cited from earlier work
CLK2 = target: T5, CLK2 (Homo sapiens, UniProt P49760); conditions: 10 μM; cited from earlier work
T5 construct: purchased ProQinase (Freiburg, Germany)

CLK3 = target: T6, CLK3 (Homo sapiens, UniProt P49761); conditions: 10 μM; cited from earlier work
T6 construct: purchased ProQinase (Freiburg, Germany)

Cell viability XTT assay [4] = type: cell-based; conditions: human, SH-SY5Y cells, read-out: Viability of treated cells relative to untreated control
DYRK1A [5] = target: T7, DYRK1A (Rattus norvegicus, UniProt Q63470); test: Radioactive kinase assay (DYRKtide, 33P-ATP); type: biochemical; conditions: 100 μM ATP, n = 3–5 concentration response curves, read-out: Inhibition of DYRK1A IC50
T7 construct: Bacterial expression plasmids for GST-DYRK1A-ΔC and GST-DYRK2 have been described earlier; made in house; host or cells: E. coli
Protocol: Each sample was assayed in triplicate. […]
estimate solubility and permeability in drug discovery and development settings. Adv. Drug Delivery Rev. 23, 4-25. […]
that influence the oral bioavailability of drug candidates. […]
c estimated using the Molinspiration logP engine. […]
log [inhibitor,M] log [inhibitor, M]
(§1) 2 were calculated. Kinase activity of DYRK1A was determined by radiometric assays using the peptide DYRKtide as a substrate. MAO-A activity was measured with the help of the MAO-GLO assay kit (Promega). IC50 values were calculated by curve fitting with the help of […]
(§2) the […] PRISM 5.0 program after automatic outlier elimination. The graphs present

MAO-A = target: T8, MAO-A (Homo sapiens, UniProt P21397); test: MAO-GLO assay; type: biochemical; conditions: for pIC50: read-out: Inhibition of MAO-A IC50
T8 sequence (P21397 1-527): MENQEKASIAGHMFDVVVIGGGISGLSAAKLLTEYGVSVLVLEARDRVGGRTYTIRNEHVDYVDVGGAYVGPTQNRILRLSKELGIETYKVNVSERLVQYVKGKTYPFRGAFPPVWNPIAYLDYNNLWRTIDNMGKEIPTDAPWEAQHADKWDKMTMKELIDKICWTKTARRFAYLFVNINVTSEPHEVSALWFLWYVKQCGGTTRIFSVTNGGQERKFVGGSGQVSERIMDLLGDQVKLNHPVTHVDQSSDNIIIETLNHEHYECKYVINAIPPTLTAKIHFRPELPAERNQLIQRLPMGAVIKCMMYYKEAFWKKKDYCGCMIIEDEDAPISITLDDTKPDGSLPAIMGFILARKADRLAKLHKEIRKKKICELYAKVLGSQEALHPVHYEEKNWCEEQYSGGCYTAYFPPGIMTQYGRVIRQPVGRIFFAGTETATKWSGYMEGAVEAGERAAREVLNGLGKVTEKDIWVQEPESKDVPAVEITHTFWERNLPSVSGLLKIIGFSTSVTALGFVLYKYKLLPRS
Protocol: as §1, §2

DYRK2 [6] = target: T1, DYRK2; test: Kinase-GLO luminescent kinase assay; type: biochemical; conditions: 1 μM compound; means of at least 3 measurements
Protocol: (§3) Bacterial expression plasmids for GST-DYRK1A-ΔC and GST-DYRK2 have been described earlier. […] Expression in logarithmically growing E. coli culture was performed for 3 h at 37°C (GST-DYRK1A-ΔC and GST-DYRK2), 3 h at 26°C (GST-HIPK2cat), over night at 28°C (GST-CLK1cat) or over night at room temperature (GST-DYRK1Bcat).
(§4) Compounds were screened for inhibitory effects against GST-DYRK1A-ΔC, GST-DYRK1Bcat, GST-DYRK2, GST-CLK1cat or GST-HIPK2cat using the Kinase-GLO Luminescent Kinase Assay from Promega. Assays were performed in a total volume of 10 μL in kinase-buffer (25 mM Hepes pH 7.4, 0.5 mM DTT, 5 mM MgCl2, 5 μM ATP) with appropriate peptide substrates (20 μM DYRKtide for the DYRKs and 100 μM DYRKtide for HIPK2, […]; or 100 μM RS domain-derived peptide for CLK1, […]). Assays were started with this amount of a kinase preparation that consumed approximately 90% of the ATP in the assay (linear range of the kinase titration curve). The reactions were run at room temperature for 30 min before 10 μL Kinase-GLO reagent was added. After incubation at room temperature for additional 10 min, luminescence was recorded for 1 s.

DYRK1A [7] = target: T9, DYRK1A (Homo sapiens, UniProt Q13627); test: Kinase-GLO luminescent kinase assay; type: biochemical; conditions: 1 μM compound; means of at least 3 measurements
T9 construct: purchased ProQinase (Freiburg, Germany)
Protocol: as §3, §4

Cell viability XTT assay [8] = type: cell-based; conditions: rat, PC12 cells, read-out: Viability of treated cells relative to untreated control; for viability at 3 days, 1 µM: PC12, 1 μM; for viability at 3 days, 3 µM: PC12, 3 μM; for viability at 3 days, 10 µM: PC12, 10 μM
CLK1 [9] = target: T4, CLK1; test: Kinase-GLO luminescent kinase assay; type: biochemical; parameters: made in house; host or cells: E. coli; conditions: 1 μM compound; means of at least 3 measurements
Protocol: as §3, §4

HIPK2 = HIPK2 (Homo sapiens, UniProt Q9H2X6); test: Kinase-GLO luminescent kinase assay; type: biochemical; parameters: made in house; host or cells: E. coli; conditions: 10 μM compound; means of at least 3 measurements
Protocol: as §3, §4

DYRK1B = DYRK1B (Homo sapiens, UniProt Q9Y463); test: Kinase-GLO luminescent kinase assay; type: biochemical; parameters: made in house; host or cells: E. coli; conditions: 1 μM compound; means of at least 3 measurements
Protocol: as §3, §4

Cell viability XTT assay [10] = type: cell-based; conditions: human, HeLa cells, read-out: Viability of treated cells relative to untreated control
[11] = n = 3–5 concentration response curves

Chain of HIPK2 (Q9H2X6 180-533): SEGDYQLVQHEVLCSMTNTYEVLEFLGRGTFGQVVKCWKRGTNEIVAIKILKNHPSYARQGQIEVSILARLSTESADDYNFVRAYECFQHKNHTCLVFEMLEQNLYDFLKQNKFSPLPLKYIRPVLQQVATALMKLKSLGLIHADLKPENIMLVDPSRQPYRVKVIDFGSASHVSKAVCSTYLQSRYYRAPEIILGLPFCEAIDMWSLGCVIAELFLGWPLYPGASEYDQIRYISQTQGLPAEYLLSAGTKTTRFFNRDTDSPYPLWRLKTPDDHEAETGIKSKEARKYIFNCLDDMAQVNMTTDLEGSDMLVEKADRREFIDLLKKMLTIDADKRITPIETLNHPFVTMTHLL
Chain of PIM1 (P11309 whole entry): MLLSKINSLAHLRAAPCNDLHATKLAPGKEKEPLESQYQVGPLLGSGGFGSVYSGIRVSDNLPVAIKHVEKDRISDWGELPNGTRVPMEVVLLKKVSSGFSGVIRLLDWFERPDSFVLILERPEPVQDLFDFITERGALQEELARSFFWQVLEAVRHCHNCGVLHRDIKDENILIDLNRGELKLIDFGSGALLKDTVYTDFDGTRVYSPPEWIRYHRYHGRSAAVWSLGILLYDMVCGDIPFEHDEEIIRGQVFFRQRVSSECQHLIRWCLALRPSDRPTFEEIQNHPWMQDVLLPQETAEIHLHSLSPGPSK
T6 sequence (P49761 whole entry): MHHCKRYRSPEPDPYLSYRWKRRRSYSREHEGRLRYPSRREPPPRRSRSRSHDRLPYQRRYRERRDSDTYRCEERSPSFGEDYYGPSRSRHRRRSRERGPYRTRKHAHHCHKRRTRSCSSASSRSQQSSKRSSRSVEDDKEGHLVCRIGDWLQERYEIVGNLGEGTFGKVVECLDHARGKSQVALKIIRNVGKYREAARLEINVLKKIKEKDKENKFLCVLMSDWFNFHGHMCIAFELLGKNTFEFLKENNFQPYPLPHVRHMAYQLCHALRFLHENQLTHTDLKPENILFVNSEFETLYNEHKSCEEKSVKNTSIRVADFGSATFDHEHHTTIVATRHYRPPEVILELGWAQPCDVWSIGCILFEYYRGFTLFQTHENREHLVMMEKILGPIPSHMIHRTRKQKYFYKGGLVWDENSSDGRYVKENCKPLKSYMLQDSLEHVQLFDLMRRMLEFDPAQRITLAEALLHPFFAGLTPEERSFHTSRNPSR
T3 sequence (Q9NR20 whole entry): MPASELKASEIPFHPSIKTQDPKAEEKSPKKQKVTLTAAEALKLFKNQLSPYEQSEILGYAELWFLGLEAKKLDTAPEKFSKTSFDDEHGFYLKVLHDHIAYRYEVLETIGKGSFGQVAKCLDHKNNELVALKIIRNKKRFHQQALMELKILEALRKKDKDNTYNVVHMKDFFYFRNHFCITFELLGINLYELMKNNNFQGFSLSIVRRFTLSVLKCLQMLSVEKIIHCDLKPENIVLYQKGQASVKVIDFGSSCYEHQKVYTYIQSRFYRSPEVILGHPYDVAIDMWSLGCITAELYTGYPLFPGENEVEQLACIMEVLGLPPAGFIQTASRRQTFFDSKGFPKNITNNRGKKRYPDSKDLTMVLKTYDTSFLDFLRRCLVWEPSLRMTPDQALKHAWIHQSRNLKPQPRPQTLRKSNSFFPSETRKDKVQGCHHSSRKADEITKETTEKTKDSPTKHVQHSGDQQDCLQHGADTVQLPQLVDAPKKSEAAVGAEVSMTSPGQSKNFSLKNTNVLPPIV
T5 sequence (P49760 whole entry): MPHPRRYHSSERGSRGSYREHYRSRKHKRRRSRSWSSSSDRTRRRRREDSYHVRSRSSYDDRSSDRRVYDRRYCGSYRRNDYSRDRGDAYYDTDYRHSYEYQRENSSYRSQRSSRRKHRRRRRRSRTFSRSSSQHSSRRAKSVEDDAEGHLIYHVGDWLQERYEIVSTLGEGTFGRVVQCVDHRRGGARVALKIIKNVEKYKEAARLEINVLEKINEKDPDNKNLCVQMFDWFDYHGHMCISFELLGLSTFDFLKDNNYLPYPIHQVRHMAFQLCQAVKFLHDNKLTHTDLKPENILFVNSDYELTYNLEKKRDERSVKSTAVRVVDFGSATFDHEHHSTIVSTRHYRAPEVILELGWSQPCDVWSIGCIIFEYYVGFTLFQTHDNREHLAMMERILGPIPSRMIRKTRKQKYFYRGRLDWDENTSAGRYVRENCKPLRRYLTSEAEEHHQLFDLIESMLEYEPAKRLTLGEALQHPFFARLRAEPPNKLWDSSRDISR
Chain of HIPK1 (Q86Z02 whole entry): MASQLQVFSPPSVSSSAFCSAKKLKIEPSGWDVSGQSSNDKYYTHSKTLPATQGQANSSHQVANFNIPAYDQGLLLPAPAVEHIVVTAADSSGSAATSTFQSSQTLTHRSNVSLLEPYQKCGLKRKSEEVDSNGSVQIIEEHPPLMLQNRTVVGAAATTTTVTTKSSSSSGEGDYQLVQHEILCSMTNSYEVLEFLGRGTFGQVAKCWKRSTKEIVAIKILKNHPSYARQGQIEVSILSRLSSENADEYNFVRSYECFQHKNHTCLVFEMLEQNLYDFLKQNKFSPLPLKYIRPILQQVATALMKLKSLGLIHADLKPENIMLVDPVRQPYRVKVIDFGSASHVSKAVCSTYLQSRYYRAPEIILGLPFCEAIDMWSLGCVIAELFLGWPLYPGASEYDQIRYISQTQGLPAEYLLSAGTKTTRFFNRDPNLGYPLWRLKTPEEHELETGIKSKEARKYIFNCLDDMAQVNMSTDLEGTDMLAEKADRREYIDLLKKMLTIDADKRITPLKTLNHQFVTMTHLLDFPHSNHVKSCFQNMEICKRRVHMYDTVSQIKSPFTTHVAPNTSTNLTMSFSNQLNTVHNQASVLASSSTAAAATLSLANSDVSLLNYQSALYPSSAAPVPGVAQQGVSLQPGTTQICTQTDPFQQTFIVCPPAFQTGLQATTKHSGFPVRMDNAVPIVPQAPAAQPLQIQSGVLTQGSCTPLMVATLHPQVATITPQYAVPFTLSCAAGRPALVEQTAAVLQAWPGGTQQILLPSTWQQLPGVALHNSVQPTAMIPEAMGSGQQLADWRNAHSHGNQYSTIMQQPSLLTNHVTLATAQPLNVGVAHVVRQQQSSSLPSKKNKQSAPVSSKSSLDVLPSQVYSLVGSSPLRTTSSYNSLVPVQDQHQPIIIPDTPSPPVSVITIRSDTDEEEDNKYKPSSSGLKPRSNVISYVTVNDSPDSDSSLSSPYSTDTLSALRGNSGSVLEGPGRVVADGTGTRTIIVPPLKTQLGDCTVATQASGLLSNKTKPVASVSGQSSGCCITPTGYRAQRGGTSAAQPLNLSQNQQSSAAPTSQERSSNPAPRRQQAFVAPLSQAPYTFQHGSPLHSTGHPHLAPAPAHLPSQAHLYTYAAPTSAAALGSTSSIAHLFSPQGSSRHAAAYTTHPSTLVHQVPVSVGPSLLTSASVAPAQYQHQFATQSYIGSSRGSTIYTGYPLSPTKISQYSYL

Structure (SMILES) | viability at 3 days, 1 µM (Cell viability XTT assay [4]) | viability at 3 days, 3 µM (Cell viability XTT assay [4]) | viability at 3 days, 10 µM (Cell viability XTT assay [4]) | pIC50 (DYRK1A [5]) | pIC50 (MAO-A; [11]) | Residual activity (% of control) DYRK2 (DYRK2 [6]) | Residual activity (% of control) DYRK1A (DYRK1A [7]) | viability at 3 days, 1 µM (Cell viability XTT assay [8]) | viability at 3 days, 3 µM (Cell viability XTT assay [8]) | viability at 3 days, 10 µM (Cell viability XTT assay [8]) | Residual activity (% of control) CLK1 (CLK1 [9]) | Residual activity (% of control) HIPK2 (HIPK2) | Residual activity (% of control) DYRK1B (DYRK1B) | viability at 3 days, 1 µM (Cell viability XTT assay [10]) | viability at 3 days, 3 µM (Cell viability XTT assay [10]) | viability at 3 days, 10 µM (Cell viability XTT assay [10]) | also measured
CCN1/C(=C/C(C)=O)Sc2ccc(O)cc21 [INDY] |  |  |  |  |  |  |  |  |  |  |  |  |  |  |  |  | Residual activity (% of control) (DYRK2 [1]): 3 % of control; pIC50 (DYRK1A [2]): […]; Residual activity (% of control) (DYRK3): 0 % of control; Residual activity (% of control) (PIM1): 2 % of control; Residual activity (% of control) (DYRK4): 13 % of control; Residual activity (% of control) (HIPK1): 64 % of control; Residual activity (% of control) (CLK1 [3]): 1 % of control; Residual activity (% of control) (CLK2): 12 % of control; Residual activity (% of control) (CLK3): 30 % of control
COc1ccc2c3ccnc(C)c3n(C(C)C#N)c2c1 (centres unmarked) [AnnH43] | 61% | 68% | 45% | 6.69 | 5.27 | 56 % of control | 5 % of control | 88% | 88% | 90% | 10 % of control | 84 % of control | 14 % of control | 91% | 80% | 66% | 
COc1ccc2c3ccnc(C)c3n(CC#N)c2c1 [AnnH31] | 81% | 88% | 38% | 7.09 | 5.49 | 59 % of control | 8 % of control | 89% | 88% | 70% | 11 % of control | 70 % of control | 7 % of control | 93% | 80% | 55% | inhibition at 1 µM (MAO-A; 1 μM, primary screen): 25%; selectivity for DYRK1A over MAO-A (MAO-A; ratio of IC50 values): 40 fold; pIC50 (MAO-A): 5.49
